Reference: PMC4018220 (Transplantation, 2014)
Read-outs that look alike come from different tables or passages of the source.

Key:
[1] = cited from earlier work
[2] = for Median [IQR] AUC: TAC, all weeks, dose and weight adjusted
clinical = conditions: human, in vivo

Q: What does the source list for `C=CC[C@@H]1/C=C(\C)C[C@H](C)C[C@H](OC)[C@H]2O[C@@](O)(C(=O)C(=O)N3CCCC[C@H]3C(=O)O[C@H](/C(C)=C/[C@@H]3CC[C@@H](O)[C@H](OC)C3)[C@H](C)[C@@H](O)CC1=O)[C@H](C)C[C@@H]2OC` [TAC, tacrolimus]?
A: Association of higher TAC levels with new onset DM (OR) ([1]; HCV-positive liver transplant, p=0.12): 2.21; Correlation of higher TAC trough levels with rejection ([1]; NIH multicenter trial): decreased rejection rates; Change in AUC over time ([2]; NNRTIs dosed with TAC): No change; Increase over time of dose and weight adjusted AUC ([2]; TAC given with protease inhibitors with or without NNRTIs): ~ 30%; Change of Tmax over time ([2]; TAC with NNRTIs alone): decreased; Change of Tmax over time ([2]; TAC with combination PI+NNRTIs): doubled; Median [IQR] AUC ([2]; +NNRTI): 3142 [2121-5157] ng*hr/mL/mg/kg; Median [IQR] AUC ([2]; +PI): 26889 [17208-42250] ng*hr/mL/mg/kg; Median [IQR] AUC ([2]; +PI/NNRTI): 12587 [8524-18780] ng*hr/mL/mg/kg; Median Tac Cx ([2]; W2, C0, NNRTI (n=4)): 199 ng/mL/mg/kg; Median Tac Cx ([2]; W2, C0, PI (n=4)): 963 ng/mL/mg/kg; Median Tac Cx ([2]; W2, C1, NNRTI (n=4)): 225 ng/mL/mg/kg; Median Tac Cx ([2]; W2, C1, PI (n=4)): 1045 ng/mL/mg/kg; Median Tac Cx ([2]; W2, C2, NNRTI (n=4)): 338 ng/mL/mg/kg; Median Tac Cx ([2]; W2, C2, PI (n=4)): 1687 ng/mL/mg/kg; Median Tac Cx ([2]; W2, C3, NNRTI (n=4)): 280 ng/mL/mg/kg; Median Tac Cx ([2]; W2, C3, PI (n=4)): 2325 ng/mL/mg/kg; Median Tac Cx ([2]; W2, C4, NNRTI (n=4)): 272 ng/mL/mg/kg; Median Tac Cx ([2]; W2, C4, PI (n=4)): 2332 ng/mL/mg/kg; Median Tac Cx ([2]; W12, C0, NNRTI (n=4)): 213 ng/mL/mg/kg; Median Tac Cx ([2]; W12, C0, PI (n=4)): 638 ng/mL/mg/kg; Median Tac Cx ([2]; W12, C1, NNRTI (n=4)): 420 ng/mL/mg/kg; Median Tac Cx ([2]; W12, C1, PI (n=4)): 1590 ng/mL/mg/kg; Median Tac Cx ([2]; W12, C2, NNRTI (n=4)): 368 ng/mL/mg/kg; Median Tac Cx ([2]; W12, C2, PI (n=4)): 2049 ng/mL/mg/kg; Median Tac Cx ([2]; W12, C3, NNRTI (n=4)): 290 ng/mL/mg/kg; Median Tac Cx ([2]; W12, C3, PI (n=4)): 2341 ng/mL/mg/kg; Median Tac Cx ([2]; W12, C4, NNRTI (n=4)): 296 ng/mL/mg/kg; Median Tac Cx ([2]; W12, C4, PI (n=4)): 2550 ng/mL/mg/kg; Median Tac Cx ([2]; W28, C0, NNRTI (n=3)): 193 ng/mL/mg/kg; Median Tac Cx ([2]; W28, C1, NNRTI (n=3)): 497 ng/mL/mg/kg; Median Tac Cx ([2]; W28, C2, NNRTI (n=3)): 368 ng/mL/mg/kg; Median Tac Cx ([2]; W28, C3, NNRTI (n=3)): 275 ng/mL/mg/kg; Median Tac Cx ([2]; W28, C4, NNRTI (n=3)): 223 ng/mL/mg/kg; Median Tac Cx ([2]; W52, C0, NNRTI (n=4)): 148 ng/mL/mg/kg; Median Tac Cx ([2]; W52, C1, NNRTI (n=4)): 301 ng/mL/mg/kg; Median Tac Cx ([2]; W52, C2, NNRTI (n=4)): 322 ng/mL/mg/kg; Median Tac Cx ([2]; W52, C3, NNRTI (n=4)): 242 ng/mL/mg/kg; Median Tac Cx ([2]; W52, C4, NNRTI (n=4)): 208 ng/mL/mg/kg; Tmax (clinical): 2 to 3 h
